# Test results: ChEMBL document CHEMBL1201862, “PubChem BioAssay data set” (2004)
# The source made the active and inactive calls.
# Tests used:
# [1] = Shn3 3'UTR reporter inhibitors, dose response, cell-based, Clone20 osteoblasts, firefly luciferase, cherry-picked (AID 624132); format: functional;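 note: firefly luciferase luminescence from reporter carrying the Shn3 3'UTR in osteoblasts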
# [2] = control 3'UTR Renilla luciferase suppression, dose response, counter-screen for Shn3 inhibitor project, cell-based, Clone20-Shn3RL, cherry-picked (AID 624133); format: functional
# [3] = molecular target: T1, Sphingosine 1-phosphate receptor 2 (Homo sapiens, UniProt O95136); experiment: Dose Response Cell Based Assay for Antagonists of the S1P2 Receptor. [Related pubchem assays: 856, 736 ]; format: functional
# [4] = molecular target: T2, Neuropeptide Y receptor type 2 (Homo sapiens, UniProt P49146); experiment: NPY-Y2 antagonist potency, selectivity check, dose response, counter-screen for NPY-Y1 antagonist project, cell-based (AID 1278); format: functional
# T2 sequence (P49146 whole entry): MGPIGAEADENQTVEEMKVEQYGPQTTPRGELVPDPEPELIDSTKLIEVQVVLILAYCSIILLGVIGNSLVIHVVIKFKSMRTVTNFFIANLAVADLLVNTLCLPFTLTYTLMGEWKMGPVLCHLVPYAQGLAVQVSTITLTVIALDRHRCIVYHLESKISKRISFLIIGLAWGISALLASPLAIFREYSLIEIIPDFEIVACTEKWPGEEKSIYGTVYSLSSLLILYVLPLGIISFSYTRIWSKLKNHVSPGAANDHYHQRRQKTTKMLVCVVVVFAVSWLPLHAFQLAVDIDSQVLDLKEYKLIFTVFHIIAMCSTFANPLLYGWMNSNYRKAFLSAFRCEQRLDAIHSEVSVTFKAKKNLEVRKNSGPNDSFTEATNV
# [5] = molecular target: T3, Neuropeptide Y receptor type 1 (Homo sapiens, UniProt P25929); experiment: NPY-Y1 receptor antagonist potency, dose response, cell-based (AID 1277); format: functional
# T3 sequence (P25929 whole entry): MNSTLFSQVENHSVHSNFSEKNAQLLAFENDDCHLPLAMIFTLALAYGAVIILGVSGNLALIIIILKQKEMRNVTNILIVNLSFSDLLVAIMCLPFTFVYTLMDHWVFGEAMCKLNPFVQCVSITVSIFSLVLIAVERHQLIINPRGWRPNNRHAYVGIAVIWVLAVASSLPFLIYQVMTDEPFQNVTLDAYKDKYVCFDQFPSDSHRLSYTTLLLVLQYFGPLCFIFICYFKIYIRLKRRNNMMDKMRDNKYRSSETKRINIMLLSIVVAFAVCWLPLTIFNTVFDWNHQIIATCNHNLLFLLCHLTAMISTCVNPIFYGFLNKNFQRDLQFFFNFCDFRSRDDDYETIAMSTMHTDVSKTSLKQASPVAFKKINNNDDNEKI
# [6] = HepG2 cell cytotoxicity, dose response, cytotoxicity control for Shn3 inhibitor project, CellTiter-Glo, cherry-picked (AID 624134); format: functional, cell-based
# Cytochrome P450 2C19 = Cytochrome P450 2C19 (Homo sapiens, UniProt P33261); experiment: qHTS Assay for Inhibitors and Substrates of Cytochrome P450 2C19. [Related pubchem assays: 410 ]; format: ADME; conditions: read-out: Potency
# Vero = experiment: West Nile virus antiviral activity, cell-based, CPE readout (AID 1621); format: functional; conditions: Chlorocebus sabaeus
# [7] = HeLa cell cytotoxicity, dose response, cytotoxicity control for MgcRacGAP inhibitor project (AID 624300); format: functional
# [8] = molecular target: T4, Rac GTPase-activating protein 1 (Homo sapiens, UniProt Q9H0H5); experiment: MgcRacGAP GTPase-activating activity inhibitors, confirmation, biochemical, ADP Hunter fluorescence, primary and confirmatory (AID 624330); format: functional
# T4 sequence (Q9H0H5 whole entry): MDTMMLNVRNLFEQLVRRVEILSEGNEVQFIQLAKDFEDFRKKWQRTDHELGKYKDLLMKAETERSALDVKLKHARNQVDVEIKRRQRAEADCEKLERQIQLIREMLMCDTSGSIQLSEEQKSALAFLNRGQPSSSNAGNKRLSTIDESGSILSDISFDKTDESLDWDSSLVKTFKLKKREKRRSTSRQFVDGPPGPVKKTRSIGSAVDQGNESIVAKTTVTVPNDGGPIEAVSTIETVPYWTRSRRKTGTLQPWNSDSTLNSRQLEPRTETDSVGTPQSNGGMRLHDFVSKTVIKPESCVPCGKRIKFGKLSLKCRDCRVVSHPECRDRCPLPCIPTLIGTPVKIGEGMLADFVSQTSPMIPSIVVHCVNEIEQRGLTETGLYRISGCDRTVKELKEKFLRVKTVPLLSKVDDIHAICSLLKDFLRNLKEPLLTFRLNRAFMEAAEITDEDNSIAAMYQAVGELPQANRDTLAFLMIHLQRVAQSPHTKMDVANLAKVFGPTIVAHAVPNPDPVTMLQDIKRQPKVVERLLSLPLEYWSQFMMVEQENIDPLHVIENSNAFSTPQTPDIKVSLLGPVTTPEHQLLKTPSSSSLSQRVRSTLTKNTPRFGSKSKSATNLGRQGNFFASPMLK
# 14-3-3 protein gamma = 14-3-3 protein gamma (Homo sapiens, UniProt P61981); experiment: modulators of 14-3-3 gamma client binding – dose response (AID 711); format: functional
# [9] = molecular target: T1, Sphingosine 1-phosphate receptor 2; experiment: Dose Response Cell Based Assay for Agonists of the S1P2 Receptor of Purchased Analogues. [Related pubchem assays: 729, 843, 854, 736 ]; format: functional
# [10] = molecular target: Diphosphomevalonate decarboxylase (Streptococcus pneumoniae serotype 2 (strain D39 / NCTC 7466), UniProt Q9FD53); experiment: S. pneumoniae DPM-DC inhibition retest, confirmation, biochemical, cuvette format, coupled NADH fluorescence (AID 1028); format: functional
# [11] = molecular target: Epstein-Barr nuclear antigen 1 (Epstein-Barr virus (strain B95-8) (HHV-4) (Human herpesvirus 4), UniProt P03211); experiment: EBNA-1 inhibitors, dose response, biochemical, fluorescence polarization, 1536-well (AID 2381); parameters: species or system human gammaherpesvirus 4;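 note: fluorescence polarization of a Cy5 DNA probe bound by EBNA-1 protein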
# [12] = molecular target: Lytic switch protein BZLF1 (Epstein-Barr virus (strain B95-8) (HHV-4) (Human herpesvirus 4), UniProt P03206); experiment: EBV ZTA inhibitors, dose response, counter-screen for EBNA-1 inhibitor project, biochemical, fluorescence polarization, Epstein-Barr virus, 1536-well (AID 2377); parameters: species or system human gammaherpesvirus 4;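 note: fluorescence polarization of Cy5-labelled ZRE DNA probe bound by purified Zta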
# NADPH oxidase 1 = NADPH oxidase 1 (Homo sapiens, UniProt Q9Y5S8); experiment: Late-stage luminescence-based cell-based dose response assay to identify inhibitors of NADPH oxidase 1 (NOX1): Synthesized analogs 3.; format: functional
# [13] = molecular target: Mitogen-activated protein kinase 10 (Homo sapiens, UniProt P53779); experiment: Dose response biochemical screening assay for inhibitors of c-Jun N-Terminal Kinase 3 (JNK3). [Related pubchem assays: 746 ]
# Coagulation factor XII = molecular target: T5, Coagulation factor XII (Homo sapiens, UniProt P00748); format: functional;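 note: activated factor XIIa alpha cleaving a fluorogenic AMC peptide substrate; inhibitor potency from loss of enzyme activity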
# T5 sequence (P00748 whole entry): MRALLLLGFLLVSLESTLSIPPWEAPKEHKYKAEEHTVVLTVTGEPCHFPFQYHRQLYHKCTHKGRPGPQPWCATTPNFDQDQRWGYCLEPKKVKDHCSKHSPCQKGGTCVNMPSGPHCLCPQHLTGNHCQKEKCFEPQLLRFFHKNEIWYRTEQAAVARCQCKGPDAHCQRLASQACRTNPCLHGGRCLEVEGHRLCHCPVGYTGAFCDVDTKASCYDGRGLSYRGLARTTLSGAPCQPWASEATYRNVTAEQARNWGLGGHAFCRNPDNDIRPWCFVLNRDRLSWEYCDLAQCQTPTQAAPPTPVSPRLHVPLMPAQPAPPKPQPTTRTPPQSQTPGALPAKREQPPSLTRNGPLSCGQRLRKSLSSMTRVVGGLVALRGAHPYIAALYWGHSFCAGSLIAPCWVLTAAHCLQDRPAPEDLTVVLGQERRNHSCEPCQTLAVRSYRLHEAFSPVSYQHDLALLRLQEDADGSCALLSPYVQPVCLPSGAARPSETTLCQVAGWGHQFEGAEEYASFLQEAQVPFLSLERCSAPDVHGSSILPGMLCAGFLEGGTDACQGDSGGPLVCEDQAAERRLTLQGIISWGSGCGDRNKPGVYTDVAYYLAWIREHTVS
# Prothrombin = Prothrombin (Homo sapiens, UniProt P00734); experiment: Thrombin 1536 HTS Dose Response Confirmation. [Related pubchem assays: 1046 (Thrombin 1536 HTS; hits were confirmed in this assay)]; format: functional
# T1 sequence (O95136 whole entry): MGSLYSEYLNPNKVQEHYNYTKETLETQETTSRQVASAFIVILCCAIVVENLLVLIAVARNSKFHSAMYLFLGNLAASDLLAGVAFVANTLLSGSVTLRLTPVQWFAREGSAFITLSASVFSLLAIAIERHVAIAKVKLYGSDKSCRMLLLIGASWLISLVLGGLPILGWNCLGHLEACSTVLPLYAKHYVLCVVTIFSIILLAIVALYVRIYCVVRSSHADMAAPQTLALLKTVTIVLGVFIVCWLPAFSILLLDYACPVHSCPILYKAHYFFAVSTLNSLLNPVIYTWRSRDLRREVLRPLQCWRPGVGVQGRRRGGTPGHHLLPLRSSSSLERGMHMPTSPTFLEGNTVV
# Diphosphomevalonate decarboxylase, sequence (Q9FD53 whole entry): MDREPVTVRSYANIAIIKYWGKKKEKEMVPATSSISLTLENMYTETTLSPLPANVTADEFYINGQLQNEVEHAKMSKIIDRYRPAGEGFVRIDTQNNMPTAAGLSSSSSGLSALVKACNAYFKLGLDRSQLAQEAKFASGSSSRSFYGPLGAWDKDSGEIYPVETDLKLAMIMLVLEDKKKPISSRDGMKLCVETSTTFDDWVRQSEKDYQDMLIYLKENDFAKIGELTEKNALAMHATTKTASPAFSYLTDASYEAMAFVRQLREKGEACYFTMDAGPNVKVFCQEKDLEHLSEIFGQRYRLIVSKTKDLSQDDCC
# 14-3-3 protein gamma, sequence (P61981 whole entry): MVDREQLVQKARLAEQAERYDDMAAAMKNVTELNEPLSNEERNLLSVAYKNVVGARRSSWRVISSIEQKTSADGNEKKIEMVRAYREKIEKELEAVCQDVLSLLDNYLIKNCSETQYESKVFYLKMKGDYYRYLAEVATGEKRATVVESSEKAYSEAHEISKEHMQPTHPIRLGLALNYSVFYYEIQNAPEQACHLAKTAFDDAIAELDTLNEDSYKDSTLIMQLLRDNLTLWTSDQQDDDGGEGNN
# Cytochrome P450 2C19, sequence (P33261 whole entry): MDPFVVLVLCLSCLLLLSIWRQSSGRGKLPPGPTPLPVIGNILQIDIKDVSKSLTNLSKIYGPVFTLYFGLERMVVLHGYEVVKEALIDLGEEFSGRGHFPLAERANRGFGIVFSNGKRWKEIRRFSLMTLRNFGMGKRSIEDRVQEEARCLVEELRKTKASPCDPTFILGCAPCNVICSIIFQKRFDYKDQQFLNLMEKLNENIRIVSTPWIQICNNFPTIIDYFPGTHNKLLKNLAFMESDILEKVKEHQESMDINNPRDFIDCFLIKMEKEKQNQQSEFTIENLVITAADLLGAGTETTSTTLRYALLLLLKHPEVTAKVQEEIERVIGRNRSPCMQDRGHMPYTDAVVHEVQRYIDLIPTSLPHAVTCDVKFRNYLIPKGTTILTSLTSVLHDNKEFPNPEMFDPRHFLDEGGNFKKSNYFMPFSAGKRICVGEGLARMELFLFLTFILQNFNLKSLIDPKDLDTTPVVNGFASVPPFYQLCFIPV
# NADPH oxidase 1, sequence (Q9Y5S8 whole entry): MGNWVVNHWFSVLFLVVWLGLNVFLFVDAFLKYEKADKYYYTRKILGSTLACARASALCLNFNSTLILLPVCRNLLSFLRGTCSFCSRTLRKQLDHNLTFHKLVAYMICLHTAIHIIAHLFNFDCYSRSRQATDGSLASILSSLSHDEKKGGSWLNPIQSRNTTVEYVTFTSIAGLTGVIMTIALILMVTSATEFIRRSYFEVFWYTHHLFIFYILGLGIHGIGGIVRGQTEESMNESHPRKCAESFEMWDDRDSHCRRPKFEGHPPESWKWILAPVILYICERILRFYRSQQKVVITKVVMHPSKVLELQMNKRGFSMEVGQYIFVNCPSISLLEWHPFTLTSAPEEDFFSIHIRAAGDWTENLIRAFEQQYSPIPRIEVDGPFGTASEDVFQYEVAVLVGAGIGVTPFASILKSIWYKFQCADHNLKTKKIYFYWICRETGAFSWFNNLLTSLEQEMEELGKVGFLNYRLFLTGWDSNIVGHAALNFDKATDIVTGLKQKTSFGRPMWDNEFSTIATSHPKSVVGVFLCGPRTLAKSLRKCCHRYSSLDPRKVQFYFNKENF
# Lytic switch protein BZLF1, sequence (P03206 whole entry): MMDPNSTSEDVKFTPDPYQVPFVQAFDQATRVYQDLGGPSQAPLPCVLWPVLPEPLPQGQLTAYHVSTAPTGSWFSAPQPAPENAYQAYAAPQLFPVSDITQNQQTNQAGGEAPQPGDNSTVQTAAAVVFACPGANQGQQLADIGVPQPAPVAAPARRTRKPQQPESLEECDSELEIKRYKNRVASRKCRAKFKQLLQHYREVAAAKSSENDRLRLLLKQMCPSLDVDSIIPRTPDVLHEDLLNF
# Epstein-Barr nuclear antigen 1, sequence (P03211 whole entry): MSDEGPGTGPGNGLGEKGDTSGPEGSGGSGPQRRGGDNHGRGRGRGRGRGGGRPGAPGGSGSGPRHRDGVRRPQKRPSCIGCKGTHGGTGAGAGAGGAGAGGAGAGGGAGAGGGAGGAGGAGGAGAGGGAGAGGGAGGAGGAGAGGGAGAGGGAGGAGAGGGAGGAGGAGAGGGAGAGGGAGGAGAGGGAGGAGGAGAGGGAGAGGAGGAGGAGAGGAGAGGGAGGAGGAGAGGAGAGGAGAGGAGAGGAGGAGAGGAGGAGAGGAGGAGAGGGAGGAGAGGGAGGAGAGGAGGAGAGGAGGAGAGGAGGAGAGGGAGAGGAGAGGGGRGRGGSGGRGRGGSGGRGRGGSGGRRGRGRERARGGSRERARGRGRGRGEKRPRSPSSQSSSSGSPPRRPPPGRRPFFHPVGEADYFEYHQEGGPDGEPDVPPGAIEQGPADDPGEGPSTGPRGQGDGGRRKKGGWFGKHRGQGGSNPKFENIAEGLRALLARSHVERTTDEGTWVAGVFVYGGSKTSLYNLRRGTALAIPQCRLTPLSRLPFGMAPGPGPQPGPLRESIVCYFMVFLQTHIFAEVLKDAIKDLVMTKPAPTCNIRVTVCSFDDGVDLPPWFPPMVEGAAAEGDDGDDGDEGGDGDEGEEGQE
# Mitogen-activated protein kinase 10, sequence (P53779 whole entry): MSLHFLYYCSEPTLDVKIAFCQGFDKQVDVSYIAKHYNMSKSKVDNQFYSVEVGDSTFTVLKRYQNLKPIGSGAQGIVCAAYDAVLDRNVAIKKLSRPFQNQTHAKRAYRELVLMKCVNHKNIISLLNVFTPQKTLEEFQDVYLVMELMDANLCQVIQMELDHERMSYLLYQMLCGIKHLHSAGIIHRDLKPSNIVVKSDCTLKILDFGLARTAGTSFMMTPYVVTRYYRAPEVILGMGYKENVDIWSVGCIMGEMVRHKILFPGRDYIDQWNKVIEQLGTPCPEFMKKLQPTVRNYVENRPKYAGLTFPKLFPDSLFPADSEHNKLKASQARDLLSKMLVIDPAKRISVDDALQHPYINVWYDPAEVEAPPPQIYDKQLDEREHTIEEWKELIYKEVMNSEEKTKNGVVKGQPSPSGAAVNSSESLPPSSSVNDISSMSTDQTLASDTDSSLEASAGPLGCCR
structure (smiles),measurement,setting,value
CCN(C(=O)c1ccc(C(C)(C)C)cc1)c1nnc(Cn2nnc3ccccc32)s1,AC50,[1],1.35 µM (active)
same,AC50,[2],2 µM (active)
same,IC50,[3],83.8 µM (not active)
same,IC50,[4],7.74 µM (active)
same,IC50,[5],3.21 µM (active)
same,AC50,[6],1.55 µM (active)
CNc1ccccc1C(=O)OCC(=O)c1ccccc1,AC50,Cytochrome P450 2C19,2 µM (inconclusive)
CCOC(=O)c1c(NC(=O)CN(C)C2CCN(C)CC2)sc(C(=O)Nc2ccccc2)c1C,IC50,Vero,24.3 µM (active)
same,CC50,[7],100 µM (active)
same,IC50,[8],76.9 µM (active)
COc1ccc(OC)c(NC(=O)CCN2CCCC(C)C2)c1 (centres undefined),IC50,14-3-3 protein gamma,> 50 µM (not active)
Cc1cc(C(=O)CN(C)Cc2ccco2)c(C)n1Cc1ccccc1,EC50,[9],> 30 µM (not active)
O=C(NCc1ccccc1)c1ccccc1-n1sc2ccccc2c1=O,IC50,[10],12.4 µM (active)
COCCCNC(=O)c1c(N)n(-c2ccc(S(N)(=O)=O)cc2)c2nc3ccccc3nc12,IC50,[11],> 5.47 µM (active)
same,IC50,[12],> 111 µM (not active)
CN1c2ccc(Br)cc2Sc2cc(C(=O)c3ccc(N=[N+]=[N-])cc3)ccc21,IC50,NADPH oxidase 1,13.7 µM (active)
CS(=O)(=O)N1CCN(c2ccccc2NC(=O)Cc2ccccc2)CC1,IC50,[13],68.8 µM (not active)
COc1ccc(/C=N/NC(=O)c2sc3nc(C)cc(C)c3c2N)cc1,IC50,Coagulation factor XII,> 50 µM (inactive)
same,IC50,Prothrombin,> 50 µM (not active)
